Source: ChEMBL document CHEMBL5038633 (J Med Chem, 2022)
*1 amine or outer side, *2 acyl side, *3 side chain or, on linkers, in order; H or OH if unused. Where a SMILES comes first, the peptide text is derived from it. Bridges are numbered along the chain shown (N, C = ends). [ ]: non-standard residue; d: D form. X1 = O=C(O)/C=C/[C@H](N[*:1])C(=O)[*:2]

Assays:
[1] = Inhibition of mast cell degranulation in Wistar Han rat peritoneal lavage mast cells assessed as inhibition histamine release by measuring lowest concentration at which histamine release observed measured after 30 mins; type: functional; details: 0.5 h
[2] = target: Sodium channel protein type 8 subunit alpha (Homo sapiens, UniProt Q9UQD0); test: Inhibition of human Nav1.6 stably expressed in cells with train pulses to -20 mV at 0.1 Hz and holding potential of -85 mV by whole-cell Qube-automated patch clamp assay; type: cell-based
Chain of Sodium channel protein type 8 subunit alpha (Q9UQD0 whole entry): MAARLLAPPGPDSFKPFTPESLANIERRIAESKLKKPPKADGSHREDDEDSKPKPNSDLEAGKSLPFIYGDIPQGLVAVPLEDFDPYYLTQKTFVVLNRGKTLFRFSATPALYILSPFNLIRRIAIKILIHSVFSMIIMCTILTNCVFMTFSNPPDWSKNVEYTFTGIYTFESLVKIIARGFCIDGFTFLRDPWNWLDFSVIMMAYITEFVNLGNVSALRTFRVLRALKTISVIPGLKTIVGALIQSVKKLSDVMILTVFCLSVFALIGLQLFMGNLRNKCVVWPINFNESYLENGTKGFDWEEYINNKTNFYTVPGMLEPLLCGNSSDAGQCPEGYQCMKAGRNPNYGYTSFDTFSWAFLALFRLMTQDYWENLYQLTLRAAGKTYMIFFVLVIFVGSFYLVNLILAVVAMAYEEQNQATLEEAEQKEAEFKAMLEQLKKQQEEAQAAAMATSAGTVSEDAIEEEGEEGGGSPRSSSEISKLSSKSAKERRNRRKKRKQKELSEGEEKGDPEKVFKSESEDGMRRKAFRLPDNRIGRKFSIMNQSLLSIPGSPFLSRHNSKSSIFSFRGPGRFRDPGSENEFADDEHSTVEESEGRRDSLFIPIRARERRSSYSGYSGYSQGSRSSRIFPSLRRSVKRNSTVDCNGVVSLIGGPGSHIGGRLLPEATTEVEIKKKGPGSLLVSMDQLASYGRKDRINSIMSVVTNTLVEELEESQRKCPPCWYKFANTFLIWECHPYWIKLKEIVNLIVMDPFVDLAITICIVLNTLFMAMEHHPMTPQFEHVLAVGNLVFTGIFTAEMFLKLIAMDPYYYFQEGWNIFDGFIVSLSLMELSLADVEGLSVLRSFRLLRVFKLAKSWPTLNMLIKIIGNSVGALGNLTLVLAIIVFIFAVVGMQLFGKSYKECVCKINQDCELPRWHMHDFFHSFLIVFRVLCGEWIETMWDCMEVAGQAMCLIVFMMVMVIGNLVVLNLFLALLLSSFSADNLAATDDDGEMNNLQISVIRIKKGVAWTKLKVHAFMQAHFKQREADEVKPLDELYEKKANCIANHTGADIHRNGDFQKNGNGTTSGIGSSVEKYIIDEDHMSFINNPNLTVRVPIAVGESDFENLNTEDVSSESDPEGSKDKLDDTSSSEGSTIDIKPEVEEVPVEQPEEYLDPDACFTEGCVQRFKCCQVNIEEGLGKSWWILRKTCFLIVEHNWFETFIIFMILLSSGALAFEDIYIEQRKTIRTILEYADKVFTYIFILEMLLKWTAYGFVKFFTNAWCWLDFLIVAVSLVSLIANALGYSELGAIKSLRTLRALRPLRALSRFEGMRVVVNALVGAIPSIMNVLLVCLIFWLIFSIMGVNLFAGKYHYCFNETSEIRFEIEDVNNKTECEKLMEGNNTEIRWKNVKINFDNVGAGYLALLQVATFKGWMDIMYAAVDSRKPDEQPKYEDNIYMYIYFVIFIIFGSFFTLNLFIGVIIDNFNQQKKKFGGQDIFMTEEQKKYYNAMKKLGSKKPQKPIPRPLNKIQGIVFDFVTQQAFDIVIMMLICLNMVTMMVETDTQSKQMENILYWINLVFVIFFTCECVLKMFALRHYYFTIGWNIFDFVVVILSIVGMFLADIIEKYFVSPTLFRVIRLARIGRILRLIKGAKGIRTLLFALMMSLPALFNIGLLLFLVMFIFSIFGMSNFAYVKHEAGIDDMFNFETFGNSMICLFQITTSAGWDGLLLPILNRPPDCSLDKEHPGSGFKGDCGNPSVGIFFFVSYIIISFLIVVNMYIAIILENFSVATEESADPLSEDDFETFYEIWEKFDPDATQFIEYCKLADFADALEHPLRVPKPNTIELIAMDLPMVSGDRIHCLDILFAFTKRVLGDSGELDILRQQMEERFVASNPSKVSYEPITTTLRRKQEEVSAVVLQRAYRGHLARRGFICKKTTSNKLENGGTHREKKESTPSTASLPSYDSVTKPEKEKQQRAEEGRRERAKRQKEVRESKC

[3] = target: Sodium channel protein type 9 subunit alpha (Homo sapiens, UniProt Q15858); test: Inhibition of human Nav1.7 stably expressed in cells with train pulses to -20 mV at 0.1 Hz and holding potential of -95 mV by Qube-automated patch clamp assay; type: cell-based
[4] = target: Sodium channel protein type 4 subunit alpha (Homo sapiens, UniProt P35499); test: Inhibition of human Nav1.4 stably expressed in cells with train pulses to -20 mV at 0.1 Hz and holding potential of -95 mV by whole-cell Qube-automated patch clamp assay; type: cell-based
Chain of Sodium channel protein type 4 subunit alpha (P35499 whole entry): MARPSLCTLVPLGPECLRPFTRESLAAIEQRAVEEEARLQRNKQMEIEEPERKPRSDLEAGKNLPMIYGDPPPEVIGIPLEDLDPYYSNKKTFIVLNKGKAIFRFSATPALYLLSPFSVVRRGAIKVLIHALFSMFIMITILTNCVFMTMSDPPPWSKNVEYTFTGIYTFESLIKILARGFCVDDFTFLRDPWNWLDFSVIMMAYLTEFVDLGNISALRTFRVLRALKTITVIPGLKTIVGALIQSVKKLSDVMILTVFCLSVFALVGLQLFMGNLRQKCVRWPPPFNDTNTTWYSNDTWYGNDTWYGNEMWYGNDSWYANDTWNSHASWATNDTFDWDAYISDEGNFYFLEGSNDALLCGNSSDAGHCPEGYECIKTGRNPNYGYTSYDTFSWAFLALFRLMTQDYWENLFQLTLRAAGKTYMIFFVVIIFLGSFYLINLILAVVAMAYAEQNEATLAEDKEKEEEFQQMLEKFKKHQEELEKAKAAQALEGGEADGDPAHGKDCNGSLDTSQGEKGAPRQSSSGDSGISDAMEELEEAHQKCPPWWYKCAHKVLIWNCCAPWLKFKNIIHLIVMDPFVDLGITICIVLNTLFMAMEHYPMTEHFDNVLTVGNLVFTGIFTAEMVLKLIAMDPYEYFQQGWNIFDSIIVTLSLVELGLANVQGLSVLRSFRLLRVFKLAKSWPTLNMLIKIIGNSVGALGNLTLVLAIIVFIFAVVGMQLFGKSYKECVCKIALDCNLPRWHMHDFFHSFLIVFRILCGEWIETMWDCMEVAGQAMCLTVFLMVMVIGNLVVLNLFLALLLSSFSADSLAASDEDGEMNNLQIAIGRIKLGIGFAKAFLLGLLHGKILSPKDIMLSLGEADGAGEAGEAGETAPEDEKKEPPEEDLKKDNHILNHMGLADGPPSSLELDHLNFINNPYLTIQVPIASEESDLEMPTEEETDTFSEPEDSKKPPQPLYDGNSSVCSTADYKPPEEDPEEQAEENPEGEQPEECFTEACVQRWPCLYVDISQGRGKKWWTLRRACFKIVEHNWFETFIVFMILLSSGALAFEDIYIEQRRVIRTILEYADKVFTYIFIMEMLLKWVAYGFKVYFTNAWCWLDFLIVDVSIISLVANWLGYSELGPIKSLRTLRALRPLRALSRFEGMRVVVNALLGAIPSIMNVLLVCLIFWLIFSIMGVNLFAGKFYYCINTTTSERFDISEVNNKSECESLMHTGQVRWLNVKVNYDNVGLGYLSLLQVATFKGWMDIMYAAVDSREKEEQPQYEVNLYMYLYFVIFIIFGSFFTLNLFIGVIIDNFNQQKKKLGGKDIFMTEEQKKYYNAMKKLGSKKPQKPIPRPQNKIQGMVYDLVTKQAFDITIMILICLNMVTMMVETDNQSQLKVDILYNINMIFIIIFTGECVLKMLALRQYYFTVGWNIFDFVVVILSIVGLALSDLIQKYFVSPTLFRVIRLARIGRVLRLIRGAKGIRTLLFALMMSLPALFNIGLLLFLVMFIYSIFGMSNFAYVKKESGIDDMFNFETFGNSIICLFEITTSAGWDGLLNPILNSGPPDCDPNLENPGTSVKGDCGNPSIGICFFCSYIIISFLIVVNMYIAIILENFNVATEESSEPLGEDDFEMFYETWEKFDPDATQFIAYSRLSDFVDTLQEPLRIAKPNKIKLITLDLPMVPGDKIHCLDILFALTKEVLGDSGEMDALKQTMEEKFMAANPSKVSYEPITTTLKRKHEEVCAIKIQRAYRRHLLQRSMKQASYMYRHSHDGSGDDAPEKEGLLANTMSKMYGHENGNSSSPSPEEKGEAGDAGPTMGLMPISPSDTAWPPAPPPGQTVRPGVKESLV

Row | Compound | LED [1] [µM] | IC50 [2] [µM] | IC50 [3] [µM] | IC50 [4] [µM]
1 | CC(=O)N[C@H]1CSSC[C@@H]2NC(=O)[C@@H]3CSSC[C@@H](C(=O)N[C@@H](CCCCN)C(=O)N[C@@H](CCCCN)C(=O)N[C@@H](CCCCN)C(=O)N[C@@H](CC(C)C)C(=O)N[C@@H](Cc4c[nH]c5ccccc45)C(N)=O)NC(=O)[C@H](Cc4c[nH]c5ccccc45)NC(=O)[C@H](CC(C)C)NC(=O)[C@H](CCCCN)NC(=O)[C@H](CSSC[C@H](NC(=O)[C@@H]4CCCN4C(=O)[C@H](CCCCN)NC(=O)[C@H](CC(C)C)NC(=O)[C@H](Cc4ccccc4)NC(=O)[C@H](CCC(=O)O)NC(=O)[C@H](CCC(N)=O)NC1=O)C(=O)N[C@@H](CC(=O)O)C(=O)N[C@@H](CCC(=O)O)C(=O)N[C@@H](CCC(=O)O)C(=O)N[C@@H](CCCNC(=N)N)C(=O)N[C@@H](CCCCN)C(=O)N3)NC(=O)[C@H](C(C)C)NC(=O)[C@H](CC(C)C)NC(=O)CNC(=O)[C@H](CCC(=O)O)NC2=O (Ac-CQEFLKPCDEERKCCEGLVCKLWCKKKLW-NH2; disulfide 1-15, 8-20, 14-24) | 10 | > 17 | 0.225 | > 17
2 | CC(=O)N[C@H]1CSSC[C@@H]2NC(=O)[C@@H]3CSSC[C@@H](C(=O)N[C@@H](CCCCN)C(=O)N[C@@H](CCCCN)C(=O)N[C@@H](CCCCN)C(=O)N[C@@H](CC(C)C)C(=O)N[C@@H](Cc4c[nH]c5ccccc45)C(N)=O)NC(=O)[C@H](Cc4c[nH]c5ccccc45)NC(=O)[C@H](CC(C)C)NC(=O)[C@H](C(C)C)NC(=O)[C@H](CSSC[C@H](NC(=O)[C@@H]4CCCN4C(=O)[C@H](CCCCN)NC(=O)[C@H](CC(C)C)NC(=O)[C@H](Cc4ccccc4)NC(=O)[C@H](CCC(=O)O)NC(=O)[C@H](CCC(N)=O)NC1=O)C(=O)N[C@@H](CC(=O)O)C(=O)N[C@@H](CCCCN)C(=O)N[C@@H](CCC(=O)O)C(=O)N[C@@H](CCCNC(=N)N)C(=O)N[C@@H](CCCCN)C(=O)N3)NC(=O)[C@H](CCC(=O)O)NC(=O)[C@H](CC(C)C)NC(=O)CNC(=O)[C@H](CCC(=O)O)NC2=O (Ac-CQEFLKPCDKERKCCEGLECVLWCKKKLW-NH2; disulfide 1-15, 8-20, 14-24) | 10 | > 17 | 0.253 | > 17
3 | CC(=O)N[C@H]1CSSC[C@@H]2NC(=O)[C@@H]3CSSC[C@@H](C(=O)N[C@@H](CCCCN)C(=O)N[C@@H](CCCCN)C(=O)N[C@@H](CCCCN)C(=O)N[C@@H](CC(C)C)C(=O)N[C@@H](Cc4c[nH]c5ccccc45)C(N)=O)NC(=O)[C@H](Cc4c[nH]c5ccccc45)NC(=O)[C@H](CC(C)C)NC(=O)[C@H](CCCCN)NC(=O)[C@H](CSSC[C@H](NC(=O)[C@@H]4CCCN4C(=O)[C@H](CCCCN)NC(=O)[C@H](CC(C)C)NC(=O)[C@H](Cc4ccccc4)NC(=O)[C@H](CCC(=O)O)NC(=O)[C@H](CCC(N)=O)NC1=O)C(=O)N[C@@H](CC(=O)O)C(=O)N[C@@H](CO)C(=O)N[C@@H](CCC(=O)O)C(=O)N[C@@H](CCCNC(=N)N)C(=O)N[C@@H](CCCCN)C(=O)N3)NC(=O)[C@H](CCC(=O)O)NC(=O)[C@H](CC(C)C)NC(=O)CNC(=O)[C@H](CCC(=O)O)NC2=O (Ac-CQEFLKPCDSERKCCEGLECKLWCKKKLW-NH2; disulfide 1-15, 8-20, 14-24) | 3.3 | > 17 | 0.113 | > 17
4 | CC(=O)N[C@H]1CSSC[C@@H]2NC(=O)[C@@H]3CSSC[C@@H](C(=O)N[C@@H](CCCCN)C(=O)N[C@@H](CCCCN)C(=O)N[C@@H](CCCCN)C(=O)N[C@@H](CC(C)C)C(=O)N[C@@H](Cc4c[nH]c5ccccc45)C(N)=O)NC(=O)[C@H](Cc4c[nH]c5ccccc45)NC(=O)[C@H](CC(C)C)NC(=O)[C@H](CCCNC(=N)N)NC(=O)[C@H](CSSC[C@H](NC(=O)[C@@H]4CCCN4C(=O)[C@H](CCCCN)NC(=O)[C@H](CC(C)C)NC(=O)[C@H](Cc4ccccc4)NC(=O)[C@H](CCC(=O)O)NC(=O)[C@H](CCC(N)=O)NC1=O)C(=O)N[C@@H](CC(=O)O)C(=O)N[C@@H](CO)C(=O)N[C@@H](CCC(=O)O)C(=O)N[C@@H](CCCNC(=N)N)C(=O)N[C@@H](CCCCN)C(=O)N3)NC(=O)[C@H](CCC(=O)O)NC(=O)[C@H](CC(C)C)NC(=O)CNC(=O)[C@H](CCC(=O)O)NC2=O (Ac-CQEFLKPCDSERKCCEGLECRLWCKKKLW-NH2; disulfide 1-15, 8-20, 14-24) | 3.3 | > 17 | 0.091 | > 17
5 | CC(=O)N[C@H]1CSSC[C@@H]2NC(=O)[C@@H]3CSSC[C@@H](C(=O)N[C@@H](CCCCN)C(=O)N[C@@H](CCCCN)C(=O)N[C@@H](CCCCN)C(=O)N[C@@H](CC(C)C)C(=O)N[C@@H](Cc4c[nH]c5ccccc45)C(N)=O)NC(=O)[C@H](Cc4c[nH]c5ccccc45)NC(=O)[C@H](CC(C)C)NC(=O)[C@H](CCCNC(=N)N)NC(=O)[C@H](CSSC[C@H](NC(=O)[C@@H]4CCCN4C(=O)[C@H](CCCCN)NC(=O)[C@H](CC(C)C)NC(=O)[C@H](Cc4ccccc4)NC(=O)[C@H](CCC(=O)O)NC(=O)[C@H](CCC(N)=O)NC1=O)C(=O)N[C@@H](CC(=O)O)C(=O)N[C@@H](CO)C(=O)N[C@@H](CCC(=O)O)C(=O)N[C@@H](CCCNC(=N)N)C(=O)N[C@@H](CCCCN)C(=O)N3)NC(=O)[C@H](C(C)C)NC(=O)[C@H](CC(C)C)NC(=O)CNC(=O)[C@H](CCC(=O)O)NC2=O (Ac-CQEFLKPCDSERKCCEGLVCRLWCKKKLW-NH2; disulfide 1-15, 8-20, 14-24) | 10 | 4.83 | 0.027 | 4.14
6 | CC(=O)N[C@H]1CSSC[C@@H]2NC(=O)[C@@H]3CSSC[C@@H](C(=O)N[C@@H](CCCCN)C(=O)N[C@@H](CCCCN)C(=O)N[C@@H](CCCCN)C(=O)N[C@@H](CC(C)C)C(=O)N[C@@H](Cc4c[nH]c5ccccc45)C(N)=O)NC(=O)[C@H](Cc4c[nH]c5ccccc45)NC(=O)[C@H](CC(C)C)NC(=O)[C@H](CCCCN)NC(=O)[C@H](CSSC[C@H](NC(=O)[C@@H]4CCCN4C(=O)[C@H](C)NC(=O)[C@H](CC(C)C)NC(=O)[C@H](Cc4ccccc4)NC(=O)[C@H](CCCCN)NC(=O)[C@H](CCC(N)=O)NC1=O)C(=O)N[C@@H](CC(=O)O)C(=O)N[C@@H](CCC(=O)O)C(=O)N[C@@H](CCC(=O)O)C(=O)N[C@@H](CCCNC(=N)N)C(=O)N[C@@H](CCCCN)C(=O)N3)NC(=O)[C@H](C(C)C)NC(=O)[C@H](CC(C)C)NC(=O)CNC(=O)[C@H](CCC(=O)O)NC2=O (Ac-CQKFLAPCDEERKCCEGLVCKLWCKKKLW-NH2; disulfide 1-15, 8-20, 14-24) | 3.3 | 10.3 | 0.074 | 15.2
7 | CC(=O)N[C@H]1CSSC[C@@H]2NC(=O)[C@@H]3CSSC[C@@H](C(=O)N[C@@H](CCCCN)C(=O)N[C@@H](CCCCN)C(=O)N[C@@H](CCCCN)C(=O)N[C@@H](CC(C)C)C(=O)N[C@@H](Cc4c[nH]c5ccccc45)C(N)=O)NC(=O)[C@H](Cc4c[nH]c5ccccc45)NC(=O)[C@H](CC(C)C)NC(=O)[C@H](C(C)C)NC(=O)[C@H](CSSC[C@H](NC(=O)[C@@H]4CCCN4C(=O)[C@H](C)NC(=O)[C@H](CC(C)C)NC(=O)[C@H](Cc4ccccc4)NC(=O)[C@H](CCCCN)NC(=O)[C@H](CCC(N)=O)NC1=O)C(=O)N[C@@H](CC(=O)O)C(=O)N[C@@H](CCCCN)C(=O)N[C@@H](/C=C/C(=O)O)C(=O)N[C@@H](CCCNC(=N)N)C(=O)N[C@@H](CCCCN)C(=O)N3)NC(=O)[C@H](CCC(=O)O)NC(=O)[C@H](CC(C)C)NC(=O)CNC(=O)[C@H](CCC(=O)O)NC2=O (Ac-CQKFLAPCDK[X1]RKCCEGLECVLWCKKKLW-NH2; disulfide 1-15, 8-20, 14-24) | 33 | > 17 | 0.099 | > 17
8 | CC(=O)N[C@H]1CSSC[C@@H]2NC(=O)[C@@H]3CSSC[C@@H](C(=O)N[C@@H](CCCCN)C(=O)N[C@@H](CCCCN)C(=O)N[C@@H](CCCCN)C(=O)N[C@@H](CC(C)C)C(=O)N[C@@H](Cc4c[nH]c5ccccc45)C(N)=O)NC(=O)[C@H](Cc4c[nH]c5ccccc45)NC(=O)[C@H](CC(C)C)NC(=O)[C@H](CCCCN)NC(=O)[C@H](CSSC[C@H](NC(=O)[C@@H]4CCCN4C(=O)[C@H](C)NC(=O)[C@H](CC(C)C)NC(=O)[C@H](Cc4ccccc4)NC(=O)[C@H](CCCCN)NC(=O)[C@H](CCC(N)=O)NC1=O)C(=O)N[C@@H](CC(=O)O)C(=O)N[C@@H](CO)C(=O)N[C@@H](CCC(=O)O)C(=O)N[C@@H](CCCNC(=N)N)C(=O)N[C@@H](CCCCN)C(=O)N3)NC(=O)[C@H](CCC(=O)O)NC(=O)[C@H](CC(C)C)NC(=O)CNC(=O)[C@H](CCC(=O)O)NC2=O (Ac-CQKFLAPCDSERKCCEGLECKLWCKKKLW-NH2; disulfide 1-15, 8-20, 14-24) | 10 | > 17 | 0.063 | > 17
9 | CC(=O)N[C@H]1CSSC[C@@H]2NC(=O)[C@@H]3CSSC[C@@H](C(=O)N[C@@H](CCCCN)C(=O)N[C@@H](CCCCN)C(=O)N[C@@H](CCCCN)C(=O)N[C@@H](CC(C)C)C(=O)N[C@@H](Cc4c[nH]c5ccccc45)C(N)=O)NC(=O)[C@H](Cc4c[nH]c5ccccc45)NC(=O)[C@H](CC(C)C)NC(=O)[C@H](CCCNC(=N)N)NC(=O)[C@H](CSSC[C@H](NC(=O)[C@@H]4CCCN4C(=O)[C@H](C)NC(=O)[C@H](CC(C)C)NC(=O)[C@H](Cc4ccccc4)NC(=O)[C@H](CCCCN)NC(=O)[C@H](CCC(N)=O)NC1=O)C(=O)N[C@@H](CC(=O)O)C(=O)N[C@@H](CO)C(=O)N[C@@H](CCC(=O)O)C(=O)N[C@@H](CCCNC(=N)N)C(=O)N[C@@H](CCCCN)C(=O)N3)NC(=O)[C@H](CCC(=O)O)NC(=O)[C@H](CC(C)C)NC(=O)CNC(=O)[C@H](CCC(=O)O)NC2=O (Ac-CQKFLAPCDSERKCCEGLECRLWCKKKLW-NH2; disulfide 1-15, 8-20, 14-24) | 3.3 | > 17 | 0.042 | > 17
